Experimental data from the supplement of paper PMC11061612.

What was measured:
Assay in all cases: combination Emax (second highest fraction inhibited in the dose matrix, 72 h); higher = more inhibition; extreme values may be limits of the assay
[1] = test system: CW-2 (Colorectal Carcinoma)
Summary of the method: (§1)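 After 24 hours at 37°C and 5% CO2 in 1536-well plates, cells in DMEM/F12 or RPMI plus 10% FBS received two-drug dose matrices for 72 hours. Viability came from CellTiter-Glo 2.0 luminescence and was scaled as inhibition, anchored at 0 by vehicle wells and at 1 by blank wells. Combination Emax is taken as the second-highest inhibition in the matrix, and Bliss excess as the observed combination effect less EA + EB − EA·EB, with EA and EB the single-agent effects.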

[2] = test system: DAN-G (Pancreatic Carcinoma)
Summary of the method: as §1

G-361 (Melanoma) = test system: G-361 (Melanoma)
Summary of the method: as §1

[3] = test system: HCC1419 (Breast Carcinoma)
Summary of the method: as §1

[4] = test system: JHH-4 (Hepatocellular Carcinoma)
Summary of the method: as §1

[5] = test system: KMS-12-BM (Plasma Cell Myeloma)
Summary of the method: as §1

[6] = test system: KU812 (Chronic Myelogenous Leukemia)
Summary of the method: as §1

M059J (Glioblastoma) = test system: M059J (Glioblastoma)
Summary of the method: as §1

[7] = test system: MOG-G-CCM (Low Grade Glioma)
Summary of the method: as §1

[8] = test system: MOLM-13 (Acute Myeloid Leukemia)
Summary of the method: as §1

[9] = test system: NCCIT (Other Solid Carcinomas)
Summary of the method: as §1

NCI-H2731 (Mesothelioma) = test system: NCI-H2731 (Mesothelioma)
Summary of the method: as §1

[10] = test system: NCI-H3122 (Lung Adenocarcinoma)
Summary of the method: as §1

[11] = test system: NCI-H526 (Small Cell Lung Carcinoma)
Summary of the method: as §1

[12] = test system: NCI-H929 (Plasma Cell Myeloma)
Summary of the method: as §1

RD (Rhabdomyosarcoma) = test system: RD (Rhabdomyosarcoma)
Summary of the method: as §1

[13] = test system: RPMI-8226 (Plasma Cell Myeloma)
Summary of the method: as §1

SJSA-1 (Osteosarcoma) = test system: SJSA-1 (Osteosarcoma)
Summary of the method: as §1

[14] = test system: SK-GT-2 (Gastric Carcinoma)
Summary of the method: as §1

[15] = test system: VMRC-RCZ (Kidney Carcinoma)
Summary of the method: as §1

SMILES	combination Emax [1]	combination Emax [2]	combination Emax (G-361 (Melanoma))	combination Emax [3]	combination Emax [4]	combination Emax [5]	combination Emax [6]	combination Emax (M059J (Glioblastoma))	combination Emax [7]	combination Emax [8]	combination Emax [9]	combination Emax (NCI-H2731 (Mesothelioma))	combination Emax [10]	combination Emax [11]	combination Emax [12]	combination Emax (RD (Rhabdomyosarcoma))	combination Emax [13]	combination Emax (SJSA-1 (Osteosarcoma))	combination Emax [14]	combination Emax [15]
COc1cccc(OCCCN)c1-c1cc(Nc2cnc(C#N)cn2)n[nH]1 [Prexasertib] + C[C@@H]1COCCN1C2=NC(=NC(=C2)C3(CC3)[S@](=N)(=O)C)C4=C5C=CNC5=NC=C4 [AZD6738] (first compound max 1 µM, 7x7, partner max 10 µM)	0.614	0.769	0.655	0.449	0.501	1	0.756	0.686	0.644	1	0.797	0.395	0.794	0.92	0.741	0.539	1	0.575	0.81	0.398
C=CCn1c(=O)c2cnc(Nc3ccc(N4CCN(C)CC4)cc3)nc2n1-c1cccc(C(C)(C)O)n1 [AZD1775] + C1CN(CCC1(C(=O)N[C@@H](CCO)C2=CC=C(C=C2)Cl)N)C3=NC=NC4=C3C=CN4 [Capivasertib] (first compound max 3 µM, partner max 3 µM)	0.522	0.848	0.724	0.282	0.439	0.984	0.912	0.826	0.748	1	0.963	0.416	0.622	0.907	0.981	0.797	0.822	0.634	0.83	0.359
Cn1cnc2c(F)c(Nc3ccc(Br)cc3Cl)c(C(=O)NOCCO)cc21 [Selumetinib] + C[C@@H]1COCCN1C2=NC(=NC(=C2)C3(CC3)[S@](=N)(=O)C)C4=C5C=CNC5=NC=C4 [AZD6738] (first compound max 10 µM, 7x7, partner max 10 µM)	0.501	0.675	0.848	0.174	0.752	0.865	0.969	0.291	0.502	1	0.649	0.173	0.734	0.427	0.882	0.522	0.871	0.559	0.186	0.217
CC1(C)CCC(CN2CCN(c3ccc(C(=O)NS(=O)(=O)c4ccc(NCC5CCOCC5)c([N+](=O)[O-])c4)c(Oc4cnc5[nH]ccc5c4)c3)CC2)=C(c2ccc(Cl)cc2)C1 [Venetoclax] + COc1cc(Nc2ncc3c(n2)-c2ccc(Cl)cc2C(c2c(F)cccc2OC)=NC3)ccc1C(=O)O [Alisertib] (first compound max 1 µM, 7x7, partner max 10 µM)	0.16	0.425	0.415	0.15	0.602	1	0.838	0.636	0.806	1	0.51	0.364	0.336	0.852	0.662	0.543	0.685	0.33	0.241	0.21
Cc1cc2ncnn2cc1Nc1ncc2c(n1)n(C1CCOCC1)c(=O)n2C [AZD7648] + C[C@@H]1COCCN1C2=NC(=NC(=C2)C3(CC3)[S@](=N)(=O)C)C4=C5C=CNC5=NC=C4 [AZD6738] (first compound max 10 µM, 7x7, partner max 10 µM)	0.461	0.643	0.45	0.327	0.276	0.926	0.769	0.514	0.577	0.998	0.641	0.381	0.751	0.637	0.846	0.246	0.855	0.435	0.216	0.388
CCc1c2c(nc3ccc(O)cc13)-c1cc3c(c(=O)n1C2)COC(=O)[C@]3(O)CC [SN-38] + CN(C)CCCOc1ccc(-c2ccc3ncc4c(c3c2)n(C2CCOCC2)c(=O)n4C)cn1 [AZD0156] (first compound max 0.3 µM, 7x7, partner max 1 µM)	0.624	0.532	0.324	0.444	0.905	0.96	0.72	0.978	0.429	1	0.246	0.406	0.925	1	0.869	0.246	0.77	0.673	0.444	0.261
C[C@@H](c1ccc2nccn2c1)n1nnc2ncc(-c3cnn(C)c3)nc21 [Savolitinib] + Cc1c2c(nn1C)CSCc1cc(n(C)n1)CSc1cc(c3ccccc3c1)OCCCc1c(C(=O)O)n(C)c3c-2c(Cl)ccc13 [AZD5991] (first compound max 1 µM, 7x7, partner max 1 µM)	0.157	0.195	0.358	0.255	0.182	1	0.708	0.204	0.212	1	0.457	0.119	0.188	0.43	1	0.21	0.983	0.265	0.163	0.134
Cn1cnc2c(F)c(Nc3ccc(Br)cc3Cl)c(C(=O)NOCCO)cc21 [Selumetinib] + CC(C)n1c(=O)n(C)c2cnc3cc(F)c(-c4ccc(OCCCN5CCCCC5)nc4)cc3c21 [AZD1390] (first compound max 10 µM, 7x7, partner max 0.3 µM)	0.252	0.15	0.674	0.152	0.605	0.295	0.949	0.107	0.125	0.767	0.0608	0.0731	0.552	0.0826	0.611	0.24	0.26	0.307	0.113	0.101
Cc1c2c(nn1C)CSCc1cc(n(C)n1)CSc1cc(c3ccccc3c1)OCCCc1c(C(=O)O)n(C)c3c-2c(Cl)ccc13 [AZD5991] + C[C@@H]1COCCN1C2=NC(=NC(=C2)C3(CC3)[S@](=N)(=O)C)C4=C5C=CNC5=NC=C4 [AZD6738] (first compound max 1 µM, 7x7, partner max 10 µM)	0.443	0.737	1	0.275	0.369	1	0.902	0.774	0.518	1	0.864	0.294	0.841	0.833	1	0.739	1	0.47	0.334	–
Cc1c2c(nn1C)CSCc1cc(n(C)n1)CSc1cc(c3ccccc3c1)OCCCc1c(C(=O)O)n(C)c3c-2c(Cl)ccc13 [AZD5991] + Cn1cnc2c(F)c(Nc3ccc(Br)cc3Cl)c(C(=O)NOCCO)cc21 [Selumetinib] (first compound max 1 µM, 7x7, partner max 3 µM)	0.314	0.84	0.992	0.284	0.492	1	0.949	0.264	0.195	1	0.579	0.151	0.881	–	1	0.625	0.96	0.457	0.154	0.214
COc1nnc2ccc(N3CCC(c4ccc(OCCN5CCN(C)C(=O)[C@H]5C)cc4)CC3)nn12 [AZD5153] + CN(CC[C@H](CSC1=CC=CC=C1)NC2=C(C=C(C=C2)S(=O)(=O)NC(=O)C3=CC=C(C=C3)N4CCC(CC4)[C@H](C5=CC=CC=C5C6=CC=C(C=C6)Cl)O)S(=O)(=O)C(F)(F)F)CCO [AZD4320] (first compound max 1 µM, 7x7, partner max 1 µM)	–	0.345	0.67	0.277	0.36	1	–	–	–	1	–	–	–	–	–	0.939	0.996	–	0.346	–
C[C@@H](c1ccc2nccn2c1)n1nnc2ncc(-c3cnn(C)c3)nc21 [Savolitinib] + CN(CC[C@H](CSC1=CC=CC=C1)NC2=C(C=C(C=C2)S(=O)(=O)NC(=O)C3=CC=C(C=C3)N4CCC(CC4)[C@H](C5=CC=CC=C5C6=CC=C(C=C6)Cl)O)S(=O)(=O)C(F)(F)F)CCO [AZD4320] (first compound max 1 µM, 7x7, partner max 1 µM)	–	0.199	0.198	0.325	0.256	1	–	–	–	1	–	–	–	–	–	0.646	0.944	–	0.136	–
Cc1c2c(nn1C)CSCc1cc(n(C)n1)CSc1cc(c3ccccc3c1)OCCCc1c(C(=O)O)n(C)c3c-2c(Cl)ccc13 [AZD5991] + C=CCn1c(=O)c2cnc(Nc3ccc(N4CCN(C)CC4)cc3)nc2n1-c1cccc(C(C)(C)O)n1 [AZD1775] (first compound max 1 µM, partner max 1 µM)	0.402	0.883	0.967	0.198	0.545	1	0.885	0.634	0.457	1	0.86	0.298	0.815	0.818	1	0.788	0.984	0.387	0.809	–
